Assay results from patent US12048737B2, “Use of a vaccine targeting a cryptic tert epitope, for treating cancer in a HLA-A*0201-positive patient having a non-immunogenic tumor expressing tert” (KRIPTIC PHARMACEUTICALS LIMITED, priority 2017, dated 2024).

System: NSCLC tumors expressing TElomerase Reverse Transcriptase (TERT)
Assay: Vx-001-201 randomized double blind phase IIb study: clinical outcome (OS, TTF, 12 months survival)
Assay type: in vivo, human
From the text: The Vx-001-201 study is a randomized, double blind multicenter study done in 70 centers in France, Germany, Spain, Italy, Greece, Poland, Romania and Czech Republic. Key eligibility criteria were a) non small cell lung cancer (NSCLC), b) stage IV or recurrent stage I-III, c) disease control after platinum based first line chemotherapy according to RECIST 1.1 criteria, d) HLA-A*0201 positivity, e) tumors expressing TElomerase Reverse Transcriptase (TERT), f) ECOG 0 or 1 g) absence of brain metastasis.
• a) Principal endpoint: overall survival (OS) measured from randomization • b) Secondary endpoints: • Time to Treatment Failure (TTF) measured from randomization • OS at 12 months • c) Main exploratory objectives • Evaluation of vaccine induced specific immune response • Correlation between vaccine specific immune response and clinical response Procedures and Vaccination Protocol
Patients who fulfilled all inclusion criteria were randomized within 4 weeks after the end of first line chemotherapy.
The vaccination protocol consisted in six vaccinations at three week interval. The optimized Vx-001/TERT572Y was used in the first two vaccinations and the native Vx-001/TERT572 in the following four vaccinations. Patients who continued controlling their disease after the sixth vaccination received boost vaccination with the Vx-001/TERT572 every three months. Vaccination was stopped at disease progression (FIG. 1).
The primary and secondary endpoints were analysed in the Full Analysis Set (FAS) composed of all patients who fulfilled the five main criteria a) NSCLC, b) stage IV or recurrent stage I-III, c) disease control after first line chemotherapy, d) HLA-A*0201 positivity and e) TERT expressing tumors.
We used the Kaplan-Meier method to estimate OS and TTF in each arm and a Cox proportional hazards regression model to estimate Hazard Ratio (HR) relating OS and TTF to the treatment effect.

[1] = FAS, all patients, Vx-001 vs placebo
[2] = FAS, OR to chemotherapy (n = 87)
[3] = FAS, SD to chemotherapy (n = 103)
[4] = Vx-001 responders vs non-responders
[5] = patients with no natural immunity
[6] = patients without natural immunity, Vx-001 vs placebo
[7] = vaccinated patients, Vx-001 immune non-responders
[8] = vaccinated patients, Vx-001 immune responders
[9] = with natural immunity, assessed before 26 days after end of chemotherapy
[10] = with natural immunity, assessed before 26 days after end of chemotherapy, Vx-001 vs placebo
[11] = within Vx-001 treated (n = 80): natural immunity vs no natural immunity
[12] = without natural immunity, assessed less than 26 days after end of chemotherapy
[13] = without natural immunity, assessed less than 26 days after end of chemotherapy, Vx-001 vs placebo
[14] = without natural immunity, 1st line CARBO (n = 74)
[15] = without natural immunity, 1st line CARBO (n = 74), Vx-001 vs placebo
[16] = without natural immunity, 1st line CDDP (n = 46)
[17] = without natural immunity, 1st line CDDP (n = 46), Vx-001 vs placebo
[18] = without natural immunity, <65 years (n = 59)

With “Vx-001: vaccine composed of two nine amino acid peptides, TERT572 and TERT572Y, administered separately with the adjuvant Montanide ISA51 VG (chain 1 RLFFYRKSV; chain 2 YLFFYRKSV; Montanide ISA51 VG adjuvant; peptide from a human protein; optimized peptide)” the 12 months survival (FAS, all patients) was 58%, the “Median OS” value (FAS, all patients) was 14.3 months and the “Median TTF” value (FAS, all patients) was 3.6 months. For the same substance, the “HR (OS)” value [1] was 0.97, the “HR (TTF)” value [1] was 0.88 and the “12 months OS” value (FAS, 1st line CARBO (n = 119)) was 58.2%. The “Median survival (OS)” value (FAS, 1st line CARBO (n = 119)) was 14.3 months, the “HR (OS)” value (FAS, 1st line CARBO (n = 119), Vx-001 vs placebo) was 1.06 and the “12 months OS” value (FAS, 1st line CDDP (n = 69)) was 59%. The “Median survival (OS)” value (FAS, 1st line CDDP (n = 69)) was 15 months, the “HR (OS)” value (FAS, 1st line CDDP (n = 69), Vx-001 vs placebo) was 0.81 and the “12 months OS” value (FAS, <65 years (n = 92)) was 57.7%. For the same substance, the “Median survival (OS)” value (FAS, <65 years (n = 92)) was 13.4 months, the “HR (OS)” value (FAS, <65 years (n = 92), Vx-001 vs placebo) was 1.2 and the “12 months OS” value (FAS, >65 years (n = 98)) was 59%. The “Median survival (OS)” value (FAS, >65 years (n = 98)) was 15 months, the “HR (OS)” value (FAS, >65 years (n = 98), Vx-001 vs placebo) was 0.78 and the “12 months OS” value (FAS, Female (n = 59)) was 53.3%. For the same substance, the “Median survival (OS)” value (FAS, Female (n = 59)) was 13.2 months, the “HR (OS)” value (FAS, Female (n = 59), Vx-001 vs placebo) was 1.52 and the “12 months OS” value (FAS, Male (n = 131)) was 61%. The “Median survival (OS)” value (FAS, Male (n = 131)) was 15 months, the “HR (OS)” value (FAS, Male (n = 131), Vx-001 vs placebo) was 0.81 and the “12 months OS” value (FAS, NSQ (n = 118)) was 55%. For the same substance, the “Median survival (OS)” value (FAS, NSQ (n = 118)) was 13.4 months, the “HR (OS)” value (FAS, NSQ (n = 118), Vx-001 vs placebo) was 0.88 and the “12 months OS” value [2] was 69%. The “Median survival (OS)” value [2] was 15.3 months, the “HR (OS)” value (FAS, OR to chemotherapy (n = 87), Vx-001 vs placebo) was 0.89 and the “12 months OS” value [3] was 52%. The “Median survival (OS)” value [3] was 14.3 months, the “HR (OS)” value (FAS, SD to chemotherapy (n = 103), Vx-001 vs placebo) was 0.99 and the “12 months OS” value (FAS, SQ (n = 72)) was 64%. For the same substance, the “Median survival (OS)” value (FAS, SQ (n = 72)) was 14.3 months, the “HR (OS)” value (FAS, SQ (n = 72), Vx-001 vs placebo) was 1.13 and the “HR (OS)” value [4] was 0.39. The “HR (TTF)” value [4] was 0.41, the “12 months OS” value (patients with natural immunity) was 65% and the “Median TTF” value (patients with natural immunity) was 2.9 months. For the same substance, the “OS and 12 months survival, placebo vs Vx-001” value (patients with natural immunity (FIG. 6)) was “no difference”, the “Median survival (OS)” value (patients with natural immunity against TERT572) was 15.5 months and the “12 months OS” value [5] was 55%. For the same substance, the “Median TTF” value [5] was 4.1 months, the “Median survival (OS)” value (patients with no natural immunity against TERT572 (non-immunogenic tumors)) was 13.2 months and the “HR (OS)” value [6] was 0.80. For the same substance, the “HR (TTF)” value [6] was 0.75, the “Median OS” value [7] was 13.4 months and the “Median TTF” value [7] was 3.6 months. The “Median OS” value [8] was 21.3 months, the “Median TTF” value [8] was 9.1 months and the “Median OS” value [9] was 15.3 months. The “Median TTF” value [9] was 2.2 months, the “HR (OS)” value [10] was 1.54 and the “HR (TTF)” value [10] was 1.98. The “HR (OS)” value [11] was 0.91, the “HR (TTF)” value [11] was 0.83 and the “Median OS” value (without natural immunity, assessed later than 26 days after chemotherapy) was 13.2 months. For the same substance, the “HR (OS)” value (without natural immunity, assessed later than 26 days after chemotherapy, Vx-001 vs placebo) was 0.96, the “Median OS” value [12] was 11.7 months and the “Median TTF” value [12] was 4.1 months. The “HR (OS)” value [13] was 0.58, the “HR (TTF)” value [13] was 0.62 and the “12 months OS” value [14] was 53%. The “Median TTF” value [14] was 3.7 months, the “Median survival (OS)” value [14] was 13.1 months and the “HR (OS)” value [15] was 1.03. For the same substance, the “HR (TTF)” value [15] was 0.80, the “12 months OS” value [16] was 59% and the “Median TTF” value [16] was 4.1 months. For the same substance, the “Median survival (OS)” value [16] was 13.4 months, the “HR (OS)” value [17] was 0.51 and the “HR (TTF)” value [17] was 0.67. The “12 months OS” value [18] was 53.6% and the “Median TTF” value [18] was 3.5 months.
